The text below walks through data of PMC6556873, “Rapid Covalent-Probe Discovery by Electrophile-Fragment Screening” (Journal of the American Chemical Society, 2019).

Read-outs that look alike come from different tables or passages of the source.

In general, viability refers to a read-out of living cells in per cent, often relative to untreated cells.

For one series, the target named is T1, BSA (Bos taurus, UniProt P02769).
T1 construct: gene ALB
Details: Intact protein LC/MS covalent labelling, fragments in pools of five, 200 uM each, 4 °C. As to conditions: 24 h, 4 °C, pool of five; 200 µM; covalent.

The next series deals with T2, NUDT7 (Homo sapiens, UniProt P0C024).
T2 construct: residues 14-235, E. coli, pNIC28-Bsa4, N-terminal His6 tag removed by TEV, construct 26672 Da
The arrangement: Intact protein LC/MS covalent labelling, fragments in pools of five, 200 uM each, 4 °C. As to conditions: 24 h, 4 °C, pool of five; 200 µM; covalent.

Another series concerns the target T3, OTUB2 (OTUB2A) (Homo sapiens, UniProt Q96DC9).
T3 construct: full length residues 1-234, E. coli BL21(DE3)-R3, His tag removed by TEV, construct 27312 Da
T3 sequence (Q96DC9 1-234): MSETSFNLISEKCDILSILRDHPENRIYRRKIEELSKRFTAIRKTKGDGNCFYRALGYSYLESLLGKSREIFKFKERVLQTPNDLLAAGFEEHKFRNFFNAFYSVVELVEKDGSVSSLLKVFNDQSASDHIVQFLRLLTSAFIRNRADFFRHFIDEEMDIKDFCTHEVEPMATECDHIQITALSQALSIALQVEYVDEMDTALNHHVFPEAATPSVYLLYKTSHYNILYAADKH
Details: Intact protein LC/MS covalent labelling, fragments in pools of five, 200 uM each, 4 °C. As to conditions: 24 h, 4 °C, pool of five; 200 µM; covalent.

The next series concerns the target T4, PCAF (Homo sapiens, UniProt Q92831).
T4 construct: gene KAT2B
Details: Intact protein LC/MS covalent labelling, fragments in pools of five, 200 uM each, 4 °C. As to conditions: 24 h, 4 °C, pool of five; 200 µM; covalent.

Series [1] is described as follows: in vitro. The following applies: human, hb2 cells, read-out: HB-2 Cells Viability (%). The arrangement: species or system CCD841, HEK293.
Series [2] in a line: in vitro. Details: species or system HB2, HEK293. As to conditions: human, ccd841 cells.
Series [3] can be described thus: in vitro. Details: species or system HB2, CCD841. The following applies: human, hek293 cells.

T1 sequence (P02769 whole entry): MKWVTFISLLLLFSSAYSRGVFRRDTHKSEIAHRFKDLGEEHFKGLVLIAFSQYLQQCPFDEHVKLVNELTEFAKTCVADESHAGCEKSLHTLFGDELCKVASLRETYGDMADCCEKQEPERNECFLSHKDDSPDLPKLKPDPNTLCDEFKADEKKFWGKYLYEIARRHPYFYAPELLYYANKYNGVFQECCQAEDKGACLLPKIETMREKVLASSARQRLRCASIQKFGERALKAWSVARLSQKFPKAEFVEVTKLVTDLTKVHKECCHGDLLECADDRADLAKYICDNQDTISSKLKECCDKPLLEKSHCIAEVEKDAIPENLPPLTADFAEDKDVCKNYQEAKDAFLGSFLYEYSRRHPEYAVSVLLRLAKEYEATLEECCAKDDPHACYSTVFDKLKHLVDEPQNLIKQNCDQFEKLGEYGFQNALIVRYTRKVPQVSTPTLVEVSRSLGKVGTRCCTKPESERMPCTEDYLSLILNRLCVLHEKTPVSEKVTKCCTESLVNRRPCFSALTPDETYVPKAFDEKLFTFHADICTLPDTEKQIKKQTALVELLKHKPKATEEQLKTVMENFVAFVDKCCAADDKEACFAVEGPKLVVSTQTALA
T4 sequence (Q92831 whole entry): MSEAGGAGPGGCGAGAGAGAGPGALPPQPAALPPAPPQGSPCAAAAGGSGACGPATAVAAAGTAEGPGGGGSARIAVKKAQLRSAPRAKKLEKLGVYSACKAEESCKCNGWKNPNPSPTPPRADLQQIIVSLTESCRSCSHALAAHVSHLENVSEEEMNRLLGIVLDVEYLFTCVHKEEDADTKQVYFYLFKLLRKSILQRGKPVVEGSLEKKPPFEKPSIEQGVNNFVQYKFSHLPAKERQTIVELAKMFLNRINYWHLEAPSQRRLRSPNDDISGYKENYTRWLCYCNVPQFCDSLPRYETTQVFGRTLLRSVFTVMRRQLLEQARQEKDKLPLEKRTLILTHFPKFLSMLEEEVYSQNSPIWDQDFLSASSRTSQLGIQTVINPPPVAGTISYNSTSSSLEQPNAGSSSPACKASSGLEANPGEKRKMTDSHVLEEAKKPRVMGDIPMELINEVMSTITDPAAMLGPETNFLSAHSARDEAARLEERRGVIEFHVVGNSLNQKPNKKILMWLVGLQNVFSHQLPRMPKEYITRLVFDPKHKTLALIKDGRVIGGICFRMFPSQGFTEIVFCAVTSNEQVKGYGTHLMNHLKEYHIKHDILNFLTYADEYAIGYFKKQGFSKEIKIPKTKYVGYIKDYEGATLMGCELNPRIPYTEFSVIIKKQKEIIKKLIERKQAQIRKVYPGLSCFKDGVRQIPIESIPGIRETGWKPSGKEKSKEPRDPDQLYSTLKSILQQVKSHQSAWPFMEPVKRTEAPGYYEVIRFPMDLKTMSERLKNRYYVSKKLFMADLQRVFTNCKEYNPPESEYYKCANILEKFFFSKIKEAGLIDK
T2 sequence (P0C024 14-235): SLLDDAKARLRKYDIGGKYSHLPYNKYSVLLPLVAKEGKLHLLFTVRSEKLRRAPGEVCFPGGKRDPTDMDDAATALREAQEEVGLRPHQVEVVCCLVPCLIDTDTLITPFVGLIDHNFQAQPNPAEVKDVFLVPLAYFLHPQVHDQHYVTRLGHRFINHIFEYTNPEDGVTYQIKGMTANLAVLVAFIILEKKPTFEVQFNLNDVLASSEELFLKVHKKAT

As to `C=CC(=O)N1CCC(C(=O)N2CCN(C(C)=O)CC2)CC1` [PCM-0102593], the BSA on BSA is 0. On NUDT7, this molecule returned an NUDT7 of 0. The molecule further had an OTUB2 at OTUB2 (OTUB2A) of 0. Further, the PCAF on PCAF came to 0. The viability at 48 h, 10 µM in “in vitro [1]” worked out at 98.3%; in “in vitro [2]”, 111%; in the series “in vitro [3]”, 105%.

As to `CCN(C(=O)CCl)C1CC1` [PCM-0102594], the BSA at BSA is on record as 0. The NUDT7 on NUDT7 was 0. The molecule also returned an OTUB2 on OTUB2 (OTUB2A) of 0. The molecule further came in with a PCAF on PCAF of 0. Besides, the viability at 48 h, 10 µM is 100% in the series “in vitro [1]”, 95.2% in the series “in vitro [2]” and 92.7% in “in vitro [3]”.

With `C=CC(=O)N1CCC(NC(=O)c2ccncc2)CC1` [PCM-0102595], the BSA at BSA stood at 0. Moreover, the NUDT7 on NUDT7 is recorded as 0. Moreover, on OTUB2 (OTUB2A), the OTUB2 turned out to be 0. Further, on PCAF, the PCAF amounted to 0. In addition, the viability at 48 h, 10 µM in the series “in vitro [1]” was 102%; in the series “in vitro [2]”, 102%; in the series “in vitro [3]” it was 94.7%.

Take `O=C(CCl)NCC1CCOC1` (centres unmarked) [PCM-0102596]: on BSA, the BSA amounted to 0. Further, the NUDT7 on NUDT7 worked out at 0. Besides, the OTUB2 on OTUB2 (OTUB2A) was found to be 0.13. The same molecule gave a PCAF on PCAF of 0. Besides, the viability at 48 h, 10 µM in the series “in vitro [1]” was 93.6%; in “in vitro [2]”, 90.8%; in the series “in vitro [3]”, 112%.

At BSA, `CC(NC(=O)CCl)C(=O)N1CCCCC1` (centres unmarked) [PCM-0102598] had a BSA of 0. In addition, the NUDT7 on NUDT7 came out at 0. At OTUB2 (OTUB2A), this molecule showed an OTUB2 of 0. For the same molecule, the PCAF on PCAF is given as 0. The figures for the viability at 48 h, 10 µM in the series “in vitro [1]”, in the series “in vitro [2]” and in the series “in vitro [3]” were 101%, 99.9% and 98.7%, respectively.

On to `C=CC(=O)N1CC(c2nc(C)no2)C1` [PCM-0102599], for which the BSA on BSA is listed as 0. Also, the NUDT7 at NUDT7 is recorded as 0. The OTUB2 on OTUB2 (OTUB2A) came out at 0. On PCAF, this molecule came in with a PCAF of 0. The viability at 48 h, 10 µM in “in vitro [1]” is 108%; in “in vitro [2]”, 102%; in the series “in vitro [3]”, 90.9%.

`C=CC(=O)N1CCCC2(CCS(=O)(=O)C2)C1` (centres unmarked) [PCM-0102600] showed a BSA at BSA of 0. Moreover, the NUDT7 on NUDT7 turned out to be 0.05. This molecule also displayed an OTUB2 on OTUB2 (OTUB2A) of 0. The PCAF on PCAF was found to be 0. Besides, the viability at 48 h, 10 µM in “in vitro [1]” is 107%; in “in vitro [2]”, 121%; in “in vitro [3]” it was 98.9%.

For the molecule `C=CC(=O)NC1CCN(c2ccc(C(F)(F)F)cn2)CC1` [PCM-0102602], the BSA at BSA came out at 0. Further, the NUDT7 on NUDT7 stood at 0. Moreover, the OTUB2 on OTUB2 (OTUB2A) is recorded as 0. In addition, the PCAF at PCAF was 0. Further, the viability at 48 h, 10 µM in “in vitro [1]” worked out at 103%; in the series “in vitro [2]”, 94.7%; in the series “in vitro [3]” it was 62.4%.

The molecule `C=CC(=O)N1CC(NC(=O)C(F)(F)F)CCC1C(F)(F)F` (centres unmarked) [PCM-0102603] yielded a BSA at BSA of 0. On NUDT7, this molecule showed an NUDT7 of 0. Besides, on OTUB2 (OTUB2A), the OTUB2 is 0. For the same molecule, on PCAF, the PCAF turned out to be 0. Besides, the viability at 48 h, 10 µM came to 97.9% in “in vitro [1]”, 104% in “in vitro [2]” and 110% in the series “in vitro [3]”.

Molecule `C=CC(=O)N1CCCC(c2nnc3ccc(C(F)(F)F)cn23)C1` (centres unmarked) [PCM-0102606] gave a BSA on BSA of 0. The NUDT7 on NUDT7 turned out to be 0. The molecule further registered an OTUB2 on OTUB2 (OTUB2A) of 0. This molecule gave a PCAF on PCAF of 0. Besides, the results for the viability at 48 h, 10 µM in “in vitro [1]”, in the series “in vitro [2]” and in the series “in vitro [3]” were 107%, 111% and 126%, respectively.

Regarding `C=CC(=O)N1CCCC(NC(=O)c2ccc(C(F)(F)F)cc2)C1` (centres unmarked) [PCM-0102607], the BSA on BSA is 0. The same molecule registered an NUDT7 on NUDT7 of 0. The molecule further registered an OTUB2 at OTUB2 (OTUB2A) of 0. On PCAF, this molecule registered a PCAF of 0. Further, the figures for the viability at 48 h, 10 µM in “in vitro [1]”, in “in vitro [2]” and in “in vitro [3]” were 98.9%, 100% and 114%, respectively.

Consider `C=CC(=O)N1CCCC(CC(=O)OC(C)(C)C)CC1` (centres unmarked) [PCM-0102609], for which the BSA at BSA stood at 0. For the same molecule, the NUDT7 on NUDT7 was 0. Further, the OTUB2 on OTUB2 (OTUB2A) came to 0.06. For the same molecule, the PCAF on PCAF turned out to be 0. Further, the values for the viability at 48 h, 10 µM in “in vitro [1]”, in “in vitro [2]” and in the series “in vitro [3]” were 106%, 104% and 90.6%, respectively.

`O=C(CCl)Nc1ccc(N2CCCCC2)cc1` [PCM-0102612] had a BSA on BSA of 0. The molecule also returned an NUDT7 at NUDT7 of 0. For the same molecule, at OTUB2 (OTUB2A), the OTUB2 stood at 0.37. Besides, the PCAF at PCAF turned out to be 0. Besides, the figures for the viability at 48 h, 10 µM in “in vitro [1]”, in “in vitro [2]” and in “in vitro [3]” were 41.7%, 55.2% and 57.2%, respectively.

`O=C(CCl)NC(=O)Nc1ccc2c(c1)OCCO2` [PCM-0102614]: the BSA on BSA was found to be 0. The molecule further displayed an NUDT7 at NUDT7 of 0.23. On OTUB2 (OTUB2A), the OTUB2 is given as 0.27. At PCAF, this molecule displayed a PCAF of 0. The viability at 48 h, 10 µM in “in vitro [1]” amounted to 88.7%; in “in vitro [2]”, 83.6%; in the series “in vitro [3]”, 80.3%.

For the molecule `O=C(CCl)N1CCOC(c2ccc(F)cc2)C1` (centres unmarked) [PCM-0102615], the BSA on BSA amounted to 0. In addition, the NUDT7 at NUDT7 amounted to 0. Further, the OTUB2 at OTUB2 (OTUB2A) is 0. Also, the PCAF at PCAF is on record as 0. The viability at 48 h, 10 µM in the series “in vitro [1]” was 2%; in the series “in vitro [2]” it was 12.6%; in the series “in vitro [3]”, 4.8%.

Consider `O=C(CCl)NC1CCN(C(=O)c2ccco2)CC1` [PCM-0102619], for which the BSA at BSA was 0. On NUDT7, the NUDT7 amounted to 0. On OTUB2 (OTUB2A), this molecule gave an OTUB2 of 0.1. On PCAF, the PCAF worked out at 0. In addition, the viability at 48 h, 10 µM in the series “in vitro [1]” amounted to 105%; in the series “in vitro [2]”, 101%; in “in vitro [3]”, 84.6%.

In the case of `NC(=O)c1c(NC(=O)CCl)sc2c1CCCC2` [PCM-0102620], the BSA at BSA is listed as 0. The NUDT7 at NUDT7 is listed as 0.36. This molecule gave an OTUB2 at OTUB2 (OTUB2A) of 0.16. The molecule also had a PCAF on PCAF of 0. Besides, the viability at 48 h, 10 µM in the series “in vitro [1]” was 42.3%; in the series “in vitro [2]”, 73.1%; in “in vitro [3]”, 29.6%.

In the case of `C=CC(=O)N1CCn2c(cc3ccccc32)C1` [PCM-0102621], on BSA, the BSA is given as 0. For the same molecule, the NUDT7 at NUDT7 is 0. Also, the OTUB2 at OTUB2 (OTUB2A) came to 0. Also, at PCAF, the PCAF was 0. The values for the viability at 48 h, 10 µM in “in vitro [1]”, in “in vitro [2]” and in the series “in vitro [3]” were 106%, 114% and 85.7%, respectively.

For `CC(C)(C)c1ccc(NC(=O)CCl)cc1` [PCM-0102622], on BSA, the BSA worked out at 0. The NUDT7 at NUDT7 worked out at 0. On OTUB2 (OTUB2A), this molecule came in with an OTUB2 of 0.32. For the same molecule, the PCAF at PCAF turned out to be 0. The viability at 48 h, 10 µM turned out to be 12.6% in the series “in vitro [1]”, 38.7% in “in vitro [2]” and 10.3% in “in vitro [3]”.

Regarding `Cc1ccc(C(=O)O)cc1NC(=O)CCl` [PCM-0102624], on BSA, the BSA is recorded as 0. At NUDT7, this molecule gave an NUDT7 of 0. At OTUB2 (OTUB2A), this molecule had an OTUB2 of 0. The PCAF on PCAF is reported as 0. In addition, the figures for the viability at 48 h, 10 µM in the series “in vitro [1]”, in the series “in vitro [2]” and in “in vitro [3]” were 102%, 108% and 86.2%, respectively.
